Test results: PubChem BioAssay (NCI)
“And” between values parts separate entries of the source, which are not always exact repeats. Equal values may be shown once.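 In this assay, cells in 96-well plates receive the compound at five concentrations for 48 hours. Endpoints are linearly interpolated between the surrounding concentrations. Here, GI50 denotes the concentration required for 50% inhibition of growth. TGI marks complete inhibition of growth.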

How the values were obtained:
Experiment in all cases: inhibition of tumour cell growth, NCI panel, 48 h
NCI-H460 lung = tested on: NCI-H460 lung
SK-MEL-28 melanoma = tested on: SK-MEL-28 melanoma
OVCAR-5 ovarian = tested on: OVCAR-5 ovarian
A549 NSCLC = tested on: A549 NSCLC
NCI-H23 lung = tested on: NCI-H23 lung
UACC-257 melanoma = tested on: UACC-257 melanoma
LOX IMVI melanoma = tested on: LOX IMVI melanoma
SNB-75 CNS = tested on: SNB-75 CNS
OVCAR-3 ovarian = tested on: OVCAR-3 ovarian
COLO 205 colon = tested on: COLO 205 colon

SMILES | GI50 (NCI-H460 lung) | TGI (NCI-H460 lung) | GI50 (SK-MEL-28 melanoma) | TGI (SK-MEL-28 melanoma) | GI50 (OVCAR-5 ovarian) | TGI (OVCAR-5 ovarian) | GI50 (A549 NSCLC) | TGI (A549 NSCLC) | GI50 (NCI-H23 lung) | TGI (NCI-H23 lung) | GI50 (UACC-257 melanoma) | TGI (UACC-257 melanoma) | GI50 (LOX IMVI melanoma) | TGI (LOX IMVI melanoma) | GI50 (SNB-75 CNS) | TGI (SNB-75 CNS) | GI50 (OVCAR-3 ovarian) | TGI (OVCAR-3 ovarian) | GI50 (COLO 205 colon) | TGI (COLO 205 colon)
C[C@H]1[C@H](C)CC[C@]2(C(=O)N3CCN(C)CC3)CC[C@]3(C)C(=CC[C@@H]4[C@@]5(C)C/C(=C/c6cccnc6)C(=O)C(C)(C)[C@@H]5CC[C@]43C)[C@H]12 | 0.891 µM | 2.45 µM | 1.4 µM | 2.76 µM | 1.55 µM | 2.91 µM | 1.06 µM | 2.32 µM | 1.57 µM | 3.19 µM | 1.41 µM | 2.91 µM | 1.41 µM | 2.88 µM | 1.08 µM | 2.34 µM | 0.969 µM | 2.36 µM | 1.53 µM | 4.78 µM
COc1cc(Cn2c(=S)ss/c2=N\C(=S)N(C)C)cc(OC)c1OC | – | 52.3 µM | – | > 100 µM | – | > 100 µM | – | > 100 µM | – | 50.6 µM | – | > 100 µM | – | > 100 µM | – | 53.9 µM | – | 13.6 µM | – | > 86.9 µM
CC(C)C[C@H](NC(=O)[C@H]1O[C@@H]1C(=O)O)C(=O)NCCc1ccc(O)cc1 | > 100 µM | > 100 µM | > 100 µM | > 100 µM | > 100 µM | > 100 µM | > 100 µM | > 100 µM | > 100 µM | > 100 µM | > 100 µM | > 100 µM | 74.1 µM | > 100 µM | > 100 µM | > 100 µM | > 100 µM | > 100 µM | > 100 µM | > 100 µM
CC(/C(=N/NC(=O)C(N)=O)c1c(Cl)ccc(Cl)c1O)C1(O)C(=O)Nc2ccccc21 (configuration not stated) | – | 78.9 µM | – | > 100 µM | – | > 100 µM | – | > 100 µM | – | > 100 µM | – | > 100 µM | – | > 100 µM | – | > 100 µM | – | > 100 µM | – | 49.1 µM
COc1ccc(-c2cnnn2-c2cc(OC)c3c(c2)OCO3)cc1 | 0.0728 µM | > 29.2 µM | 0.58 µM | > 100 µM | 0.502 µM | > 100 µM | 0.107 µM | > 100 µM | 0.286 µM | > 100 µM | 35.4 µM | > 100 µM | 0.491 µM | > 100 µM | 0.0741 µM | > 100 µM | 0.0547 µM | 0.437 µM | 0.0578 µM | 0.52 µM
O=C1C=C[C@@]23C[C@@H](Nc4c(O)c5c6c(c42)=NCCC=6C=N5)SC3=C1 | 7.2 µM | 19.8 µM | 7.48 µM | 20.1 µM | 5.13 µM | 9.5 µM | 8.62 µM | 24.4 µM | 2.52 µM | 7.01 µM | 1.67 µM | 3.04 µM | 1.82 µM | 3.78 µM | 12 µM | 25.3 µM | 1.5 µM | 3.76 µM | – | 2.92 µM
COc1ccc(C/C(C)=C(\c2ccc(OCCN3CCOCC3)cc2)c2ccc(OC(=O)Cc3ccccc3)cc2)cc1 | 0.713 µM | 1.53 µM | 0.555 µM | 1.06 µM | 0.951 µM | 10.7 µM | 1.02 µM | 11.2 µM | 0.823 µM | 3.3 µM | 0.578 µM | 1.09 µM | 0.56 µM | 1.03 µM | 0.692 µM | 4.47 µM | 0.766 µM | 1.66 µM | 0.614 µM | 1.54 µM
COc1cc(C(O)c2nc3ccccc3s2)cc(OC)c1OC (configuration not stated) | 30.9 µM | > 100 µM | > 100 µM | > 100 µM | > 100 µM | > 100 µM | 86.7 µM | > 100 µM | 7.32 µM | > 100 µM | 26 µM | > 100 µM | 50.6 µM | > 100 µM | 33.2 µM | > 100 µM | 88.9 µM | > 100 µM | > 100 µM | > 100 µM
Nc1ncnc2c1ncn2CC(O)C(=O)O (configuration not stated) | – | > 100 µM | – | > 100 µM | – | > 100 µM | – | > 100 µM | – | > 100 µM | – | > 100 µM | – | > 100 µM | – | > 100 µM | – | > 100 µM | – | > 100 µM
Cc1cccc(NC(=O)c2cc3cc(N=Nc4ccccc4Cl)ccc3oc2=O)c1 | – | > 100 µM | – | > 100 µM | – | 56.8 µM | – | > 100 µM | – | 59.5 µM | – | > 100 µM | – | 27.4 µM | – | > 100 µM | – | > 100 µM | – | > 100 µM
CCCCCCCCCCC(O)[C@H]1CCC(C2CC[C@H]([C@H](O)CCCCCCCCCCC(O)CC3=CC(C)OC3=O)O2)O1 (some centres not stated) | 2.16 µM | 4.12 µM and 29.9 µM | – | 7.73 µM | 2.58 µM | 9.11 µM | 2.96 µM | > 100 µM | < 0.01 µM | 4.03 µM and 7.12 µM | – | 4.83 µM and 5.13 µM | 1.18 µM | 3.09 µM and 2.92 µM | 2.25 µM | 5.08 µM and 5.94 µM | 0.674 µM | 4.01 µM and 3.32 µM | 2.17 µM | 2.84 µM and 5.12 µM
CCCCCCCCC(=O)N(C)C1C2CN3CCC(O2)C13 (configuration not stated) | – | > 100 µM | – | > 100 µM | – | > 100 µM | – | > 100 µM | – | > 100 µM | – | > 100 µM | – | > 100 µM | – | > 100 µM | – | > 100 µM | – | > 100 µM
O=C1Nc2ccccc2C1Cc1ccc([N+](=O)[O-])cc1 (configuration not stated) | – | > 100 µM | – | > 100 µM | – | > 100 µM | – | > 100 µM | – | > 100 µM | – | > 100 µM | – | > 100 µM | – | > 100 µM | – | > 100 µM | – | > 100 µM
Cc1nc2cnc3cc(F)c(-c4ccc(Oc5ncccn5)cc4Cl)cc3c2n1[C@H]1CCN(C(=O)CO)C[C@@H]1F | 2.54 µM | > 100 µM | 0.023 µM | 12.1 µM | 0.279 µM | > 40.1 µM | 1.97 µM | > 100 µM | 0.32 µM | 13.7 µM | 0.0269 µM | 0.411 µM | 0.417 µM | 11.5 µM | 12 µM | 36.2 µM | 20 µM | > 76.3 µM | 0.0229 µM | 1.68 µM
CCOC(=O)C1=C(NNC(=O)Cc2ccccc2)CSC1=Nc1ccccc1 | – | > 100 µM | – | > 100 µM | – | > 100 µM | – | > 100 µM | – | > 100 µM | – | > 100 µM | – | > 100 µM | – | > 100 µM | – | > 100 µM | – | > 100 µM
